Assay results taken from patent US20230257396A1, “MACROCYCLES AND THEIR USE” (BLOSSOMHILL THERAPEUTICS, INC., priority 2020, published 2023).

Experiments:
Test in all cases: KINOMEscan kinase binding assay (Eurofins/DiscoveRx), % Ctrl
kinases [1] = molecular target: T1, kinases (Homo sapiens, UniProt P00519, T315I); details: 1 μM
T1 construct: purchased Eurofins/DiscoveRx; host or cells: E. coli BL21-derived host (T7 phage display) for most kinases; HEK-293 for the rest
Procedure, shortened: (§1)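 Competition binding: DNA- or phage-tagged kinases (T7 phage in E. coli BL21, or HEK-293-expressed) with immobilized biotinylated ligand beads and test compound, 1 h at room temperature. Bead-bound kinase eluted and quantified by qPCR; % Ctrl = (compound − positive control)/(negative control − positive control) ×100 at a single compound concentration.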

kinases [2] = molecular target: T2, kinases (Homo sapiens, UniProt P00533, DEL752-759); details: 1 μM; EGFR(S752-I759del)
T2 construct: purchased Eurofins/DiscoveRx; host or cells: E. coli BL21-derived host (T7 phage display) for most kinases; HEK-293 for the rest
Procedure, shortened: as §1

kinases [3] = molecular target: T3, kinases (Homo sapiens, UniProt P36888); details: 1 μM
T3 construct: purchased Eurofins/DiscoveRx; host or cells: E. coli BL21-derived host (T7 phage display) for most kinases; HEK-293 for the rest
T3 sequence (P36888 27-993): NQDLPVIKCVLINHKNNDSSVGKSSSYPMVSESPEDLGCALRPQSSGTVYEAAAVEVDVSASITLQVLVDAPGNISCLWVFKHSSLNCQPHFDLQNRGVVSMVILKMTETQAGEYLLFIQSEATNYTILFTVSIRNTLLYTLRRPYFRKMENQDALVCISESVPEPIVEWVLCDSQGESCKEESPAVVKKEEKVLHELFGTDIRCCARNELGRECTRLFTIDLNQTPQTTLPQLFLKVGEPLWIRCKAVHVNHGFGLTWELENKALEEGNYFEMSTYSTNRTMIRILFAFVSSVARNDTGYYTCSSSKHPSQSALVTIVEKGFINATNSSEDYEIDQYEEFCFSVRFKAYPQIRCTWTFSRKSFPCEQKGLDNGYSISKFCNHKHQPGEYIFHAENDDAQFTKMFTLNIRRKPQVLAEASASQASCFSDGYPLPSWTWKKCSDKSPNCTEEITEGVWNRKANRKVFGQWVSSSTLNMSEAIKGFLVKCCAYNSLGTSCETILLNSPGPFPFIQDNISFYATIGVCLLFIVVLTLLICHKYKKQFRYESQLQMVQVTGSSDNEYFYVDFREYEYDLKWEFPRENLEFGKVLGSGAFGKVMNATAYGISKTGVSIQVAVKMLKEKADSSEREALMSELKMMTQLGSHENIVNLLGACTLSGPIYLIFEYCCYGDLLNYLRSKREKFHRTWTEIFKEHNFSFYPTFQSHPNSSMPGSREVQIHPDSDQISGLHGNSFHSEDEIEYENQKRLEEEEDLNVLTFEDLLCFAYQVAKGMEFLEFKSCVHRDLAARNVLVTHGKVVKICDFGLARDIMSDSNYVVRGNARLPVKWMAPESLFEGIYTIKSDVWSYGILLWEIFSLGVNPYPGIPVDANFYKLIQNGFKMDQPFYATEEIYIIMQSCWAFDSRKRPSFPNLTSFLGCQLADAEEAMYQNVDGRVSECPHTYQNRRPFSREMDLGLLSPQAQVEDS
Procedure, shortened: as §1

kinases [4] = molecular target: T4, kinases (Homo sapiens, UniProt P07949); details: 1 μM; RET
T4 construct: purchased Eurofins/DiscoveRx; host or cells: E. coli BL21-derived host (T7 phage display) for most kinases; HEK-293 for the rest
Procedure, shortened: as §1

kinases [5] = molecular target: T5, kinases (Homo sapiens, UniProt P00533, L861Q); details: 1 μM; EGFR(L861Q)
T5 construct: purchased Eurofins/DiscoveRx; host or cells: E. coli BL21-derived host (T7 phage display) for most kinases; HEK-293 for the rest
Procedure, shortened: as §1

kinases [6] = molecular target: T6, kinases (Homo sapiens, UniProt P10721, V559D); details: 1 μM; KIT(V559D)
T6 construct: purchased Eurofins/DiscoveRx; host or cells: E. coli BL21-derived host (T7 phage display) for most kinases; HEK-293 for the rest
Procedure, shortened: as §1

kinases [7] = molecular target: T7, kinases (Homo sapiens, UniProt P00519); details: 1 μM
T7 construct: purchased Eurofins/DiscoveRx; host or cells: E. coli BL21-derived host (T7 phage display) for most kinases; HEK-293 for the rest
Procedure, shortened: as §1

kinases [8] = molecular target: T8, kinases (Homo sapiens, UniProt P16234); details: 1 μM; PDGFRA
T8 construct: purchased Eurofins/DiscoveRx; host or cells: E. coli BL21-derived host (T7 phage display) for most kinases; HEK-293 for the rest
Procedure, shortened: as §1

kinases [9] = molecular target: T9, kinases (Homo sapiens, UniProt P10721, D816H); details: 1 μM; KIT(D816H)
T9 construct: purchased Eurofins/DiscoveRx; host or cells: E. coli BL21-derived host (T7 phage display) for most kinases; HEK-293 for the rest
Procedure, shortened: as §1

kinases [10] = molecular target: T10, kinases (Homo sapiens, UniProt P00519, Q252H); details: 1 μM
T10 construct: purchased Eurofins/DiscoveRx; host or cells: E. coli BL21-derived host (T7 phage display) for most kinases; HEK-293 for the rest
Procedure, shortened: as §1

kinases [11] = molecular target: T11, kinases (Homo sapiens, UniProt P42684); details: 1 μM; ABL2
T11 construct: purchased Eurofins/DiscoveRx; host or cells: E. coli BL21-derived host (T7 phage display) for most kinases; HEK-293 for the rest
Procedure, shortened: as §1

kinases [12] = molecular target: T12, kinases (Homo sapiens, UniProt P00519, E255K); details: 1 μM; ABL1(E255K)-phosphorylated
T12 construct: purchased Eurofins/DiscoveRx; host or cells: E. coli BL21-derived host (T7 phage display) for most kinases; HEK-293 for the rest
Procedure, shortened: as §1

kinases [13] = molecular target: T13, kinases (Homo sapiens, UniProt P07949, M918T); details: 1 μM; RET(M918T)
T13 construct: purchased Eurofins/DiscoveRx; host or cells: E. coli BL21-derived host (T7 phage display) for most kinases; HEK-293 for the rest
Procedure, shortened: as §1

T8 sequence (P16234 24-1089): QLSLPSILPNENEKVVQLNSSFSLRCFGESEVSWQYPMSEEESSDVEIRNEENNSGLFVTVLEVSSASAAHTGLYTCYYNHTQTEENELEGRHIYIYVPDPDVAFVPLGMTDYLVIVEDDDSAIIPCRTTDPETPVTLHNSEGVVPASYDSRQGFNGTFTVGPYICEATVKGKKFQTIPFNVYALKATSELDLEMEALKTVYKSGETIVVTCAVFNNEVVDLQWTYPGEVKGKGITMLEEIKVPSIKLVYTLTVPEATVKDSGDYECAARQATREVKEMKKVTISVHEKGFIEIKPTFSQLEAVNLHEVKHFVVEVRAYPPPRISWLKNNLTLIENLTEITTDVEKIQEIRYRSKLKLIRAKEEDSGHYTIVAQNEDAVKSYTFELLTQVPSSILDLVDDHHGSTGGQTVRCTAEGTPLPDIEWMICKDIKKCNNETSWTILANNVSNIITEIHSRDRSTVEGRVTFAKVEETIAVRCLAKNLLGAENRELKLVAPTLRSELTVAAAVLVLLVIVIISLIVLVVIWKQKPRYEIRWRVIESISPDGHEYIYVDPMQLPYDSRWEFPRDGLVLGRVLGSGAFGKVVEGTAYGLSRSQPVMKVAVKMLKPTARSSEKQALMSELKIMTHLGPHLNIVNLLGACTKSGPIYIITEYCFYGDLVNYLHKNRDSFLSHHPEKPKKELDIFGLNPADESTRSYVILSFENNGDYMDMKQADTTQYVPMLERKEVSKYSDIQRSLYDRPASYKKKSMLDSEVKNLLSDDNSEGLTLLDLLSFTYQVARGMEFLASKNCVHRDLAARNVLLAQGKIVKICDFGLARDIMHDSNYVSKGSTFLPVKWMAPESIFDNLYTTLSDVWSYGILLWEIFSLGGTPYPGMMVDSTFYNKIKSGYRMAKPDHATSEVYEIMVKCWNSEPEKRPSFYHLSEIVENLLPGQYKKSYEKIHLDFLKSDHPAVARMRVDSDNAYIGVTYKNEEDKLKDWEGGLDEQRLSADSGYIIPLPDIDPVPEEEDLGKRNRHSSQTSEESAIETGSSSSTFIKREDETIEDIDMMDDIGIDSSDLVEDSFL
T6 sequence (P10721 26-976 V559D): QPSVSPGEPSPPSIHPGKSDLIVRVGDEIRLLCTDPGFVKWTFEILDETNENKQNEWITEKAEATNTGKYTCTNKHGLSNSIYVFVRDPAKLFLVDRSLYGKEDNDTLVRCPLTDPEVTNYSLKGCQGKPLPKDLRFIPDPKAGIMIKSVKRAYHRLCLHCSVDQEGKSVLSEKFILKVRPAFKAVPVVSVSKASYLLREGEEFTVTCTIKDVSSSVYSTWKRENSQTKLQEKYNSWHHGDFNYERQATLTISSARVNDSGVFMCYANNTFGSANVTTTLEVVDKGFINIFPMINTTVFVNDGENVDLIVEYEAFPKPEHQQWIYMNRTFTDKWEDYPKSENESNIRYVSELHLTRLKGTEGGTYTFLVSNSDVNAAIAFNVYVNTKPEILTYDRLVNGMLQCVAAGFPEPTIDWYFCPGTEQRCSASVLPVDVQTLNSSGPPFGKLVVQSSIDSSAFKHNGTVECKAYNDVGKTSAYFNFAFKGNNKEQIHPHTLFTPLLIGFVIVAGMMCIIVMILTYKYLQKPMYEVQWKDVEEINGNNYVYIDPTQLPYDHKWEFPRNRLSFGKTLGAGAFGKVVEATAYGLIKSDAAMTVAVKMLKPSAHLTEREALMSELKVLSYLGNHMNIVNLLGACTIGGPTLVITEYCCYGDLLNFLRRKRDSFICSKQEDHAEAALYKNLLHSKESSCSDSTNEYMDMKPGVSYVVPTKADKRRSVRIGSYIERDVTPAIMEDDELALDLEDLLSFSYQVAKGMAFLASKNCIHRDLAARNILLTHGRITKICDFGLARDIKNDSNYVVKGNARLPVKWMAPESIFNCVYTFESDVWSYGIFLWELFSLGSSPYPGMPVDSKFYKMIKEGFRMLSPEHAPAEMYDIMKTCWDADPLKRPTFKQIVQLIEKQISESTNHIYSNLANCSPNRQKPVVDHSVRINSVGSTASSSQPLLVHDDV
T9 sequence (P10721 26-976 D816H): as the sequence (P10721 26-976 V559D) above, with D534V, D791H counted along it
T13 sequence (P07949 29-1114 M918T): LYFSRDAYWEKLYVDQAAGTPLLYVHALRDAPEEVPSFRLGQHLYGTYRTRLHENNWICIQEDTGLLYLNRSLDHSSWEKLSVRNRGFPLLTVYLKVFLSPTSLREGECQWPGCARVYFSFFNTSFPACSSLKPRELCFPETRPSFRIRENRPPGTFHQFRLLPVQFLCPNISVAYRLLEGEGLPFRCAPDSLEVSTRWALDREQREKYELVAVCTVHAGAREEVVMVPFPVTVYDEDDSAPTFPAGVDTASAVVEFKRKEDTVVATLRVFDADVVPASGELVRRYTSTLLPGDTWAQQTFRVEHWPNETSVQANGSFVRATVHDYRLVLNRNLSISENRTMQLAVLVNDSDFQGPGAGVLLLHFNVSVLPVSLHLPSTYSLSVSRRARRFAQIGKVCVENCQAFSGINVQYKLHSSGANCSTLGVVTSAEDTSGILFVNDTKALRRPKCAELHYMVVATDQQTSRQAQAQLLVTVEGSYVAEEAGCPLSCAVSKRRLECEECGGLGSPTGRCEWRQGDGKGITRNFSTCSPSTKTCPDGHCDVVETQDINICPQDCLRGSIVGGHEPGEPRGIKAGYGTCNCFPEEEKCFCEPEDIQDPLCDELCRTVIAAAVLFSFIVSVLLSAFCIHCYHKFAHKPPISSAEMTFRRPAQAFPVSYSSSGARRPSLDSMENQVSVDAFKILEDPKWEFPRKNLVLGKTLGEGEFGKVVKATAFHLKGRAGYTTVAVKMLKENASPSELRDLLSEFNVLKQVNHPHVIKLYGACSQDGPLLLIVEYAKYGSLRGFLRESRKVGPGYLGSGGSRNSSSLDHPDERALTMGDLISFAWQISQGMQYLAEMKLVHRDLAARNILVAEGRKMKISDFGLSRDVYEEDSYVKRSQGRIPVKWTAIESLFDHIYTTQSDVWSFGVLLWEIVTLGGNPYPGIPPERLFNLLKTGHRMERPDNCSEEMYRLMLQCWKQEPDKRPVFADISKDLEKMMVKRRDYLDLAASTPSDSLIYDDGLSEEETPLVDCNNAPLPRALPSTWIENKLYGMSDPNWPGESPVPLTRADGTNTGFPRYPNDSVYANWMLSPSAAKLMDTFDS
T11 sequence (P42684 whole entry): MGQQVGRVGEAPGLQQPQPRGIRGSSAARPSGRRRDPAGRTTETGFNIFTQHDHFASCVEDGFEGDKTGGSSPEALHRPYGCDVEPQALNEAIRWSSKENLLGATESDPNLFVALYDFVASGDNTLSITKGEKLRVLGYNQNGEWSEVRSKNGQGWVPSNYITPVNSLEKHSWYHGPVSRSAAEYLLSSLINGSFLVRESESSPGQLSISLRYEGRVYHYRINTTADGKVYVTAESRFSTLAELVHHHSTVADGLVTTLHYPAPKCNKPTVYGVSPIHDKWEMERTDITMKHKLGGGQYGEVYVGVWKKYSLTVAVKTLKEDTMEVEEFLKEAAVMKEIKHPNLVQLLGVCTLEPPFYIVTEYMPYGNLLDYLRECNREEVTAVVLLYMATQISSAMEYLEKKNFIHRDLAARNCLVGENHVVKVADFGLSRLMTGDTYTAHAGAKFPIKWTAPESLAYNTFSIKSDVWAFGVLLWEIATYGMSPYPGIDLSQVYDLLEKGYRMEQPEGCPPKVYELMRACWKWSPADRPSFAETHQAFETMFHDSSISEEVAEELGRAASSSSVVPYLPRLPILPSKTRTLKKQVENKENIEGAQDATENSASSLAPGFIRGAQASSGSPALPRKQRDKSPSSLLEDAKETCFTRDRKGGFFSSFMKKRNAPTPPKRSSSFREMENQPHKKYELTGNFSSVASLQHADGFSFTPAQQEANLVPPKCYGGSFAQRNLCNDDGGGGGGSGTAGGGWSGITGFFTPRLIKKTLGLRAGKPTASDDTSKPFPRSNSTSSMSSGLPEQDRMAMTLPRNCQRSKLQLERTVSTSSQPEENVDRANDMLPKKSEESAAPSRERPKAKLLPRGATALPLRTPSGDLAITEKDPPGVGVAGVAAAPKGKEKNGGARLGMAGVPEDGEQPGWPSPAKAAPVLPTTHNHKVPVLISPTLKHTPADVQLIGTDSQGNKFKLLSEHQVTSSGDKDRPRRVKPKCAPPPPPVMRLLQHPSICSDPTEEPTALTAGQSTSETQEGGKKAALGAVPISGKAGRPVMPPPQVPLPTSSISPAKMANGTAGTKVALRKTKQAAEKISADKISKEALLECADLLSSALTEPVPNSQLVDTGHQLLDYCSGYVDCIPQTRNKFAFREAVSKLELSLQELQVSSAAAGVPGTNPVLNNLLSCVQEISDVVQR
T4 sequence (P07949 29-1114): as the sequence (P07949 29-1114 M918T) above, with T890M counted along it

| % Ctrl, ABL1(T315I)-nonphosphorylated (kinases [1]) [% Ctrl] | % Ctrl, ABL1(T315I)-phosphorylated (kinases [1]) [% Ctrl] | % Ctrl, EGFR(S752-I759del) (kinases [2]) [% Ctrl] | % Ctrl, FLT3 (kinases [3]) [% Ctrl] | % Ctrl, FLT3-autoinhibited (kinases [3]) [% Ctrl] | % Ctrl, RET (kinases [4]) [% Ctrl] | % Ctrl, EGFR(L861Q) (kinases [5]) [% Ctrl] | % Ctrl, KIT(V559D) (kinases [6]) [% Ctrl] | % Ctrl, ABL1-nonphosphorylated (kinases [7]) [% Ctrl] | % Ctrl, ABL1-phosphorylated (kinases [7]) [% Ctrl] | % Ctrl, PDGFRA (kinases [8]) [% Ctrl] | % Ctrl, KIT(D816H) (kinases [9]) [% Ctrl] | % Ctrl, ABL1(Q252H)-nonphosphorylated (kinases [10]) [% Ctrl] | % Ctrl, ABL1(Q252H)-phosphorylated (kinases [10]) [% Ctrl] | % Ctrl, ABL2 (kinases [11]) [% Ctrl] | % Ctrl, ABL1(E255K)-phosphorylated (kinases [12]) [% Ctrl] | % Ctrl, RET(M918T) (kinases [13]) [% Ctrl] | SMILES |
| --- | --- | --- | --- | --- | --- | --- | --- | --- | --- | --- | --- | --- | --- | --- | --- | --- | --- |
| 100 | 100 | 93 | 87 | 100 | 91 | 100 | 99 | 83 | 100 | 100 | 100 | 92 | 100 | 100 | 92 | 89 | Cc1cc2c([nH]1)/C=C1\C(=O)Nc3cnc(cc31)-c1cnn(C)c1COCCNC2=O [Ex.123, [3a(4)Z]-6,14-dimethyl-10,11,13,14-tetrahydro-2H-17,1-(azenometheno)pyrazolo[4,3-m]dipyrrolo[3,2-f:3′,4′-i][1,4]oxazacyclopentadecine-3,8(5H,9H)-dione] |
| 16 | 19 | 89 | 5.5 | 50 | 34 | 91 | 64 | 7.1 | 56 | 19 | 38 | 9 | 63 | 77 | 49 | 45 | Cc1cc2c([nH]1)/C=C1\C(=O)Nc3ccc(cc31)-c1ccnn1CCOCCN(C)C2=O [Ex. 41, [19a(20)Z]-2,5-dimethyl-6,7,9,10-tetrahydro-1H-15,17-(ethanediylidene)pyrazolo[1,5-d]dipyrrolo[3,4-h:2′,3′-k][1,4,14]oxadiazacyclohexadecine-4,19(5H,18H)-dione] |
| 68 | 75 | 91 | 99 | 77 | 85 | 90 | 100 | 53 | 90 | 80 | 65 | 55 | 97 | 100 | 84 | 95 | Cc1cc2c([nH]1)/C=C1\C(=O)Nc3ccc(cc31)-c1ccnn1CCNCCNC2=O [Ex. 43, [19a(20)Z]-2-methyl-5,6,7,8,9,10-hexahydro-15,17-(ethanediylidene)pyrazolo[1,5-g]dipyrrolo[3,4-k:2′,3′-n][1,4,7]triazacyclohexadecine-4,19(1H,18H)-dione] |
